Reference: patent US20120035320A1, “POLYACRIDINE NUCLEIC ACID DELIVERY PEPTIDE COMPLEXES” (University of Iowa Research Foundation, priority 2010, published 2012)
“Also recorded” adds a separate entry of the source. Where two headings read alike, the source gives them in different places. No end group written: not given here. *: point of attachment. 6‑(9-acridinylamino)hexanoyl = O=C(CCCCCNc1c2ccccc2nc2ccccc12)*; Acr = acridine on the lysine ε-amine; PEG = not defined here

Tests used:
[1] = system: Erythrocytes; experiment: RBC hemolysis assay; assay type: cell-based, mice; conditions: for hemolytic activity when combined with pGL3: pH 7.4, peptide DNA polyplex 1.5 nmols and 7.5 μg pGL3
Description: Whole blood was obtained from male ICR mice by heart puncture with heparinized 22 G needles and collected in conical tubes containing 10 ml of 0.15 M PBS (pH 7.4) prewarmed to 37° C. Erythrocytes were immediately separated from plasma by centrifugation at 2000 rpm for 2 min, washed three times with 10 ml of PBS, and then diluted to 1.5×10^8 cells/ml. Peptides were prepared at 15 μM and serially diluted to 10-0.01 μM, after which 100 μl was pipetted in triplicate into a MultiScreenHTS BV 96 well plate. Erythrocytes (50 μl, 7.5×10^6 cells) were added to the peptides and incubated at 37° C. for 1 h followed by filtration on a Multiscreen vacuum manifold (Millipore Corporation, Billerica, Mass.). The filtrate was measured for Abs410nm on a Biotech plate reader (Biotech Instruments Incorporated., Winooski, Vt.) and compared to the 100% hemolysis caused by replacing PBS with water. Peptide DNA polyplexes (1.5 nmols and 7.5 μg pGL3) were also assayed for hemolysis as described above.

[2] = system: pGL3; experiment: thiazole orange fluorophore exclusion assay of polyacridine-melittin peptides; assay type: binding; conditions: pGL3, 0.1 μM thiazole orange
Description: The relative binding affinity of peptides for DNA was determined by a fluorophore exclusion assay (Rich, D. H., Gesellchen, P. D., Tong, A., Cheung, A., and Buckner, C. K. (1975) Alkylating derivatives of amino acids and peptides. Synthesis of N-maleoylamino acids, [1-(N-maleoylglycyl)cysteinyl]oxytocin, and [1-(N-maleoyl-11-aminoundecanoyl)cysteinyl]oxytocin. Effects on vasopressin-stimulated water loss from isolated toad bladder. J. Med. Chem. 18, 1004-1010). pGL3 (200 μl of 4 μg/ml in 5 mM Hepes pH 7.5 containing 0.1 μM thiazole orange) was combined with 0, 0.05, 0.1, 0.25, 0.35, 0.5, 1, and 2 nmols of peptide in 300 μl of Hepes and allowed to bind at RT for 30 min. Thiazole orange fluorescence was measured using an LS50B fluorometer (Perkin-Elmer, U.K.) by exciting at 498 nm while monitoring emission at 546 nm with the slit widths set at 10 nm. A fluorescence blank of thiazole orange in the absence of DNA was subtracted from all values before data analysis. The data is presented as nmol of peptide per μg of DNA versus the percent fluorescence intensity±the standard deviation determined by three independent measurements.

[3] = system: pGL3; experiment: gel band shift assay of acridine PEGs and polyacridine PEG-peptides; assay type: binding; conditions: constant stoichiometry of 1 nmol per μg of DNA
Description: The samples were loaded onto a 1% agarose gel (50 ml) and electrophoresed in TAE buffer at 80 V for 90 min. […] The samples were applied to a 1% agarose gel and electrophoresed as described above.

[4] = particle size and zeta potential of polyacridine PEG-peptide DNA open polyplexes; assay type: physicochemical; conditions: for apparent particle diameter: QELS, 0.2 nmols per μg of DNA or higher
Description: Polyacridine PEG-peptide DNA polyplexes were formed by combining 10 μg of pGL3 (in 500 μl of 5 mM Hepes pH 7.4) with an equal volume containing either 1, 2, 4, 8, 12, 16, or 20 nmol of polyacridine PEG-peptide while vortexing. The polyplexes were equilibrated at RT for 30 min prior to analysis of particle size (QELS) and zeta potential using a Brookhaven ZetaPlus (Brookhaven Instruments, Holtsville, N.Y.). The particle size diameter and zeta potential are reported as the mean and standard deviation of ten measurements.

[5] = system: gastrocnemius muscle of ICR male mice; experiment: intramuscle-electroporation dosing and bioluminescence imaging; assay type: in vivo; conditions: IM-EP
Description: Male ICR mice (Harlan), weighing 25-30 g were prepared for IM-EP dosing by anesthetization with an intraperitoneal dose of 200 μl of ketamine/xylazine (20 mg/ml and 2 mg/ml, respectively). The hamstring muscles were sheared and swabbed with 70% ethanol prior to administering a 50 μl dose over 10 sec in normal saline to both gastrocnemius muscles in 2 mice by a 1 ml monoject syringe (1 cc, 28 G×½). After dosing the BTX 2-Needle Array Electrode was inserted into the skin with the electrodes straddling the dosing site. Successive electronic stimulation was generated by the EMC BTX 830, Square-wave Pulse Generator (BTX, Harvard Apparatus) as the power source. At 1 min post-administration of the DNA dose, the pulse generator delivered six successive 100 V pulses over 20 msec with a 100 msec interval between pulses (31).
Luciferase reporter gene expression was quantified by bioluminescence imaging (BLI) at 2-14 days following IM-EP using an IVIS Imaging System 200 Series (Xenogen) (Wu, J. C., Sundaresan, G., Iyer, M., and Gambhir, S. S. (2001) Noninvasive optical imaging of firefly luciferase reporter gene expression in skeletal muscles of living mice. Molecular Therapy: the Journal of the American Society of Gene Therapy 4, 297-306). Mice were anesthetized by isofluorane (2% flow with oxygen) and dosed intramuscularly with 40 μL of 30 mg per ml D-Luciferin (GoldBio). Bioluminescent images were acquired 5 min post substrate administration and acquired for 1 min with a 24.6 cm field of view. The resultant grayscale images with a colormap overlay were analyzed using the Igor Pro 4.09 software (Livinglmage). Luciferase expression is reported as photons/sec/cm^2/steradian within a uniformly defined region of interest.

[6] = RBC hemolysis at pH 5.0, second value of the cell (pH 7.4:5.0), read-out: HL50 (μM) pH 5.0
[7] = RBC hemolysis at pH 7.4, first value of the cell (pH 7.4:5.0), read-out: HL50 (μM) pH 7.4

| Compound | EC50 [1, 6] [µM] | EC50 [1, 7] [µM] | hemolytic activity when combined with pGL3 [1] | DNA band shift on agarose gel [3] | also measured |
| --- | --- | --- | --- | --- | --- |
| CC[C@H](C)[C@H](NC(=O)CN)C(=O)NCC(=O)N[C@@H](C)C(=O)N[C@H](C(=O)N[C@@H](CC(C)C)C(=O)N[C@@H](CCCCN)C(=O)N[C@H](C(=O)N[C@@H](CC(C)C)C(=O)N[C@H](C(=O)N[C@H](C(=O)NCC(=O)N[C@@H](CC(C)C)C(=O)N1CCC[C@H]1C(=O)N[C@@H](C)C(=O)N[C@@H](CC(C)C)C(=O)N[C@H](C(=O)N[C@@H](CO)C(=O)N[C@@H](Cc1c[nH]c2ccccc12)C(=O)N[C@H](C(=O)N[C@@H](CCCCN)C(=O)N[C@@H](CCCNC(=N)N)C(=O)N[C@@H](CCCCN)C(=O)N[C@@H](CCCNC(=N)N)C(=O)N[C@@H](CCC(N)=O)C(=O)N[C@@H](CCC(N)=O)C(N)=O)[C@@H](C)CC)[C@@H](C)CC)[C@@H](C)O)[C@@H](C)O)C(C)C)C(C)C [Melittin, reference compound] | 2.3 | 0.9 | nearly unchanged |  |  |
| (CWKKGIGAVLKVLTTGLPALISLIKRKRQQ)2 [Dimeric-melittin] | 1.2 | 1 |  |  |  |
| (m)GWKKGIGAVLKVLTTGLPALISLIKRKRQQ [Mal-melittin] | 4.8 | 3.84 | maintained their hemolytic activity |  |  |
| CWKKGIGAVLKVLTTGLPALISLIKRKRQQ [Cys-melittin] | 0.7 | 1 | maintained their hemolytic activity; also recorded: nearly unchanged |  | thiazole orange displacement, asymptote / equivalence point of fluorescence intensity [2]: approximately 0.5 nmols of peptide per μg of DNA |
| Lys(Acr)-Arg-Lys(Acr)-Arg-Lys(Acr)-Arg-Lys(Acr)-Arg-Cys (K(Acr)RK(Acr)RK(Acr)RK(Acr)RC) [poly(Acr-Arg)4-Cys] | > 10 | > 10 |  |  | thiazole orange displacement, asymptote / equivalence point of fluorescence intensity [2]: approximately 0.4 nmols of peptide per μg of DNA; thiazole orange displacement, asymptote / equivalence point of fluorescence intensity ([2]; listed as (Acr-Arg)4-Cys): 0.35 nmols of peptide per μg of DNA |
| PEG-Cys-Trp-(Lys(Acr))3: PEG5000 Da-maleimide on Cys of Cys-Trp-Lys3, Lys ε-amines conjugated with 6-(9-acridinylamino) hexanoic acid; SEQ ID NO: 3 (C(PEG 5000 Da maleimide)WK(6‑(9-acridinylamino)hexanoyl)K(6‑(9-acridinylamino)hexanoyl)K(6‑(9-acridinylamino)hexanoyl)) |  |  |  | further retarded DNA migration | apparent particle diameter [4]: approximately 200 nm; apparent particle diameter ([4]; listed as PEG-Cys-(Lys(Acr))3): 200 nm; zeta potential over titration ([4]; titrating with 0.1 to 2 nmol per μg of DNA): −15 to −5 mV |
| PEG-Cys-Trp-(Lys(Acr))4: PEG5000 Da-maleimide on Cys of Cys-Trp-Lys4, Lys ε-amines conjugated with 6-(9-acridinylamino) hexanoic acid; SEQ ID NO: 4 (C(PEG 5000 Da maleimide)WK(6‑(9-acridinylamino)hexanoyl)K(6‑(9-acridinylamino)hexanoyl)K(6‑(9-acridinylamino)hexanoyl)K(6‑(9-acridinylamino)hexanoyl)) |  |  |  | further retarded DNA migration |  |
| PEG-Cys-Trp-(Lys(Acr))5: PEG5000 Da-maleimide on Cys of Cys-Trp-Lys5, Lys ε-amines conjugated with 6-(9-acridinylamino) hexanoic acid; SEQ ID NO: 5 (C(PEG 5000 Da maleimide)WK(6‑(9-acridinylamino)hexanoyl)K(6‑(9-acridinylamino)hexanoyl)K(6‑(9-acridinylamino)hexanoyl)K(6‑(9-acridinylamino)hexanoyl)K(6‑(9-acridinylamino)hexanoyl)) |  |  |  | complete retardation of DNA migration | zeta potential asymptote ([4]; at 1 nmol per μg of DNA): −5 mV; luciferase expression at day 2, fold decrease versus pGL3 ([5]; formulation 0.2 nmol per μg of DNA, 1 μg pGL3, mice): 100 fold; luciferase expression at day 2 compared with pGL3 ([5]; open polyplex 2 nmol per μg of DNA, 1 μg pGL3, mice): identical expression levels; luciferase expression at day 2, fold lower than pGL3 ([5]; open polyplex 4 nmol per μg of DNA, 1 μg pGL3, mice): approximately 10 fold; loss in expression across the 14 day sampling period ([5]; open polyplexes 4 nmol per μg of DNA, mice): 2-3 fold; decrease of expression over 14 days ([5]; open polyplexes 0.2 and 2 nmol per μg of DNA, mice): 10 fold |
| PEG-Cys-Trp-(Lys)5: PEGylated Cys-Trp-Lys5 without acridine, SEQ ID NO: 19 (C(PEG)WKKKKK; reading uncertain; also: PEG5000 Da maleimide on Cys, printed as PEG-Cys-Trp-(Lys)5) |  |  |  | unable to cause a band DNA shift |  |
